The term IC50 denotes the point on the concentration scale where inhibition reaches its midpoint.

The test system of this test is hMMP-1 promoter reporter gene in Hela cells (GR transcription repression). Put plainly: hMMP1 transcription repression activity, luciferase reporter gene screening system (hMMP1 GR transcription repression test). Type of test: cell-based. Conditions: Homo sapiens; for Emax: HeLa, maximum effect value, positive control 1000 nM dexamethasone, read-out: TR (hMMP1 transcription inhibition activity) Effect; for IC50: absolute IC50, HeLa hMMP-1/luciferase cells, 10 nM PMA, 18 h, max concentration 1000 nM, read-out: TR (hMMP1 transcription inhibition activity) IC50. The source says:
Human MMP-1 promoter region (containing two AP-1 binding sites and two PEA3 sites, a total of 249bp, GenBank catalog #AF023338) was cloned into the upstream of luciferase reporter gene. The hMMP-1 promoter reporter gene was constructed and transfected into Hela cells so that luciferase production could be easily detected. A stable recombinant hMMP-⅟luciferase cell line was used for the development and validation of this experiment.
• [0377] 1) All the culture media were carefully aspirated, and the cell layer was rinsed gently with an appropriate amount of DPBS, and then aspirated. • [0378] 2) An appropriate amount of 0.05% Typsine EDTA was added and incubated in a CO2 incubator for 3-5 minutes to digest the cells. • [0379] 3) The cells were resuspended with an appropriate amount of cell culture medium. • [0380] 4) The required amount of cells were calculated. The cell concentration was 5x10^3 cells/well. • [0381] 5) The cell suspension was diluted with appropriate cell culture medium. • [0382] 6) The cell suspension was dispensed into a disposable sterile loading slot. • [0383] 7) Inoculated 30µL per well into a 384-well plate. • [0384] 8) The cell plate was placed in a 37° C. 5% CO2 incubator for 18-24 hours.
The final DMSO concentration was 0.1%. PMA needs to be protected from light during use.
hMMP1 GR transcription repression activity test • [0395] 1) Inoculated cells: Fresh cells were inoculated into 384 white experimental plates at 5x10^3 cells/30µL/well, and incubated in a 5% CO2 incubator at 37° C. for 24 hours. • [0396] 2) Compound preparation: The compound plate was prepared before the experiment, and the reference compound (dexamethasone) and the tested compound of 10x concentration were prepared. Finally, the experimental plate of 10× concentration compound was obtained. • [0397] 3) Added compound: 3.3 µL of 10x compound was transferred with Bravo and added to cell plate. Incubated for 18 hours in a 5% CO2 incubator at 37° C. • [0398] 4) 30 µL of Bright-Glo fluorescent detection reagent was transferred to the cell plate. • [0399] 5) Centrifugal incubation for 2 minutes. • [0400] 6) The fluorescence value was measured with the Envision plate reader.
Positive Control: 10 nM PMA + 1000 nM dexamethasone (0.1% DMSO)
Negative control: 10 nM PMA (0.1% DMSO)
Test compound: Maximum concentration of 1000 nM, 4-fold dilution, 10 wells in total, repeated.
Dexamethasone: Maximum concentration of 1000 nM, 4-fold dilution, 10 wells in total, repeated.
The graphing software GraphPad Prism5 was used to create the concentration curves of the test compounds and calculate the IC50 values.
(Reporter assays use an easily measured gene product as a stand-in for the process of interest.)

As for `CC(C)[C@H](NC(=O)C(C)(F)F)[C@H](Oc1ccc2c(cnn2-c2ccc3c(c2)OCO3)c1)c1ccccc1` [WX008], the Emax came out at 91.4% and the IC50 was determined as 58.9 nM.

As to `CC(C)[C@H](NC(=O)C(C)(F)F)[C@H](Oc1ccc2c(cnn2-c2ccc3nn(C)c(=O)n3c2)c1)c1ccccc1` [WX032], the Emax was 57.4% and the IC50 was determined as 56.6 nM.

For the molecule `CC(C)[C@H](NC(=O)C(C)(F)F)[C@H](Oc1ccc2c(cnn2-c2ccc3noc(=O)n3c2)c1)c1ccccc1` [WX033], the Emax was 71.8% and the IC50 was found to be 11.6 nM.

Consider `CC(C)[C@H](NC(=O)C(C)(F)F)[C@H](Oc1ccc2c(cnn2-c2ccc3ncccc3c2)c1)c1ccccc1` [WX007], for which the Emax came to 63.6% and the IC50 turned out to be 121 nM.

For the molecule `CC(C)[C@H](NC(=O)C(C)(F)F)[C@H](Oc1ccc2c(cnn2-c2cn3cnnc3cn2)c1)c1ccccc1` [WX025], the Emax was determined as 76.1% and the IC50 is 28.4 nM.

In the case of `CC(C)[C@H](NC(=O)C(C)(F)F)[C@H](Oc1ccc2c(cnn2-c2ccc3n[nH]c(=O)n3c2)c1)c1ccccc1` [WX031], the Emax was found to be 54.4% and the IC50 was found to be 42.7 nM.

As for `CC(C)[C@H](NC(=O)C(C)(F)F)[C@H](Oc1ccc2c(cnn2-c2ccc3c(c2)CCO3)c1)c1ccccc1` [WX005], the Emax worked out at 70.7% and the IC50 was determined as 6.75 nM.

On to `CC(C)[C@H](NC(=O)C(C)(F)F)[C@H](Oc1ccc2c(cnn2-c2ccc3c(c2)CCCO3)c1)c1ccccc1` [WX006], for which the Emax was 73% and the half-inhibitory concentration (IC50) turned out to be 79.2 nM.

As to `CC(C)[C@H](NC(=O)C(C)(F)F)[C@H](Oc1ccc2c(cnn2-c2cnc3cnccn23)c1)c1ccccc1` [WX027], the Emax was found to be 79% and the IC50 was 70.6 nM.

(Values after patent US20230167068A1, “BENZOPYRAZOLE COMPOUND” (MEDSHINE DISCOVERY INC., priority 2019, published 2023).)
